Test results reported in US20010053778A1, “Pharmaceutical compositions of glycogen phosphorylase inhibitors” (priority 2000, published 2001).

Key:
[1] = in vitro dissolution test, microcentrifuge method, PBS (Drug 1 compositions); type: physicochemical; details: for AUC90: area under aqueous concentration versus time curve after 90 minutes; for AUC90 / C1200 / Cmax, 90: PBS, dosage 2000 μg/mL; for C1200: concentration at 1200 minutes; for Cmax, 90: maximum concentration of Drug 1 in solution during first 90 minutes; for AUC / Drug Concentration: PBS pH 6.5, 37° C.
Experimental: In vitro dissolution tests were performed to evaluate the performance of the amorphous dispersions of Examples 1-9 relative to the performance of Controls 1 and 2. The dissolution performance of the SDD of Example 1 was evaluated in an in vitro dissolution test using a microcentrifuge method. In this test, 14.4 mg of the SDD of Example 1 was added to a microcentrifuge tube. The tube was placed in a 37° C. sonicating bath, and 1.8 mL phosphate buffered saline (PBS) at pH 6.5 and 290 mOsm/kg was added. The samples were quickly mixed using a vortex mixer for about 60 seconds. The samples were centrifuged at 13,000 G at 37° C. for 1 minute. The resulting supernatant solution was then sampled and diluted 1:6 (by volume) with methanol and then analyzed by high-performance liquid chromatography (HPLC). The contents of the tubes were mixed on the vortex mixer and allowed to stand undisturbed at 37° C. until the next sample was taken. Samples were collected at 4, 10, 20, 40, 90, and 1200 minutes.
The performance of Example Nos. 2-8 was likewise evaluated in in vitro dissolution tests using the same microcentrifuge method described above. The dosage for each of these tests was 2000 μg/ml.
The performance of the amorphous dispersions of Example 9 were tested using the same microcentrifuge method, except that 2.5 grams of the coated beads were added to 50 mL of PBS solution (resulting in a dosage of 2000 μg/mL).
For Controls 1 and 2, in vitro dissolution tests were also performed using the same microcentrifuge method except that 3.6 mg of either crystalline or amorphous Drug 1 was used.
These compositions were evaluated in in vitro dissolution tests using the procedures outlined in Example 10. The quantities of drug and polymer noted above were each added to a microcentrifuge tube, to which was added 1.8 ml of PBS solution. The tube was vortexed immediately after adding the PBS solution.
A coating solution comprising 7.5 wt % HPMCAS-MF dissolved in 92.5 wt % solvent (5 wt % water in acetone) was prepared and spray-coated onto Nu-Core Beads (45/60 mesh), producing a thin coating of the polymer on the surface of the beads resulting in beads containing 12.2 wt % HPMCAS-MF. Samples of these beads (2.4 gm) were then mixed with 100 mg of amorphous Drug 1 (resulting in a drug:polymer ratio of 1:3 or 25 wt % Drug 1) and evaluated in an in vitro dissolution test using the procedures outlined in Example 10.
A composition was formed by blending 50 wt % of the SDD of Example 2 (containing 50 wt % Drug 1 and 50 wt % HPMCAS-MF) with 50 wt % HPMCAS-MF. This composition was evaluated in a dissolution test as described in Example 10.

[2] = in vitro dissolution test, microcentrifuge method, model fasted duodenal solution (Drug 2 compositions); type: physicochemical; parameters: AUC: concentration or dose not given beside the values; details: for AUC90: aqueous area under the curve after 90 minutes; for AUC90 / C1200 / Cmax, 90 / AUC: MFDS; for AUC90 / C1200 / Cmax, 90: dosage 1000 μg/mL; for C1200: concentration at 1200 minutes; for Cmax, 90: maximum concentration of Drug 2 in solution during first 90 minutes; for Drug Concentration: MFDS pH 6.5, 37° C.
Experimental: In vitro dissolution tests were performed to evaluate the performance of the amorphous dispersions of Examples 12-17 relative to the performance of Controls 4 and 5. The SDD of Example 12 was evaluated in an in vitro dissolution test using a microcentrifuge method. In this test, 3600 μg of the SDD of Example 12 was added to a microcentrifuge tube. The tube was placed in a 37° C. sonicating bath, and 1.8 mL of model fasted duodenal solution (MFDS), comprising phosphate buffered saline with 14.7 mM sodium taurocholic acid and 2.8 mM of 1-palmitoyl-2-oleyl-sn-glycero-3-phosphocholine, pH 6.5, 290 mOsm/kg, was added. […] The samples were quickly mixed using a vortex mixer for about 60 seconds. The samples were centrifuged at 13,000 G at 37° C. for 1 minute. The resulting supernatant solution was then sampled and diluted 1:6 (by volume) with methanol and then analyzed by high-performance liquid chromatography (HPLC). The contents of the tubes were mixed on the vortex mixer and allowed to stand undisturbed at 37° C. until the next sample was taken. Samples were collected at 4, 10, 20, 40, 90, and 1200 minutes.
For Controls 4 and 5, in vitro dissolution tests were performed using the procedures described above except that 1.8 mg of crystalline and amorphous Drug 2 was used, respectively.

AUC90 [1] | C1200 [1] | Cmax, 90 [1] | AUC ([1]; time 0 min) | Drug Concentration ([1]; time 0 min) | AUC ([1]; time 4 min) | Drug Concentration ([1]; time 4 min) | AUC ([1]; time 10 min) | Drug Concentration ([1]; time 10 min) | AUC ([1]; time 20 min) | Drug Concentration ([1]; time 20 min) | AUC ([1]; time 40 min) | Drug Concentration ([1]; time 40 min) | AUC ([1]; time 90 min) | Drug Concentration ([1]; time 90 min) | AUC ([1]; time 1200 min) | Drug Concentration ([1]; time 1200 min) | AUC90 [2] | C1200 [2] | Cmax, 90 [2] | Compound | also measured
12,800 min* μg/mL | 125 µg/mL | 149 µg/mL | 0 µg·min/mL | 0 µg/mL | 260 µg·min/mL | 130 µg/mL | 1,100 min* μg/mL | 149 µg/mL | 2,500 min* μg/mL | 139 µg/mL | 5,400 min* μg/mL | 149 µg/mL | 12,800 min* μg/mL | 147 µg/mL | 163,800 min* μg/mL | 125 µg/mL |  |  |  | O=C(N[C@@H](Cc1ccccc1)[C@@H](O)C(=O)N1C[C@@H](O)[C@@H](O)C1)c1cc2cc(Cl)ccc2[nH]1 [Control 1] | 
20,600 min* μg/mL | 203 µg/mL | 586 µg/mL | 0 µg·min/mL | 0 µg/mL | 1,200 min* μg/mL | 586 µg/mL | 4,400 min* μg/mL | 473 µg/mL | 7,800 min* μg/mL | 220 µg/mL | 11,700 min* μg/mL | 182 µg/mL | 20,600 min* μg/mL | 167 µg/mL | 225,900 min* μg/mL | 203 µg/mL |  |  |  | O=C(N[C@@H](Cc1ccccc1)[C@@H](O)C(=O)N1C[C@@H](O)[C@@H](O)C1)c1cc2cc(Cl)ccc2[nH]1 [Control 2] | AUC ([1]; time 180 min): 35,200 min* μg/mL; Drug Concentration ([1]; time 180 min): 158 µg/mL
 |  |  |  |  |  |  |  |  |  |  |  |  |  |  |  |  | 5,900 min* μg/mL | 102 µg/mL | 82 µg/mL | O=C(N[C@@H](Cc1ccccc1)C(=O)N1CC(O)C1)c1cc2cc(Cl)ccc2[nH]1 [Control 4] | AUC ([2]; time 0 min): 0 µg·min/mL; Drug Concentration ([2]; time 0 min): 0 µg/mL; AUC ([2]; time 4 min): 90 µg·min/mL; Drug Concentration ([2]; time 4 min): 45 µg/mL; AUC ([2]; time 10 min): 357 µg·min/mL; Drug Concentration ([2]; time 10 min): 44 µg/mL; AUC ([2]; time 20 min): 842 µg·min/mL; Drug Concentration ([2]; time 20 min): 53 µg/mL; AUC ([2]; time 40 min): 2,100 min* μg/mL; Drug Concentration ([2]; time 40 min): 72 µg/mL; AUC ([2]; time 90 min): 5,900 min* μg/mL; Drug Concentration ([2]; time 90 min): 82 µg/mL; AUC ([2]; time 1200 min): 108,100 min* μg/mL; Drug Concentration ([2]; time 1200 min): 102 µg/mL
 |  |  |  |  |  |  |  |  |  |  |  |  |  |  |  |  | 20,800 min* μg/mL | 370 µg/mL | 268 µg/mL | O=C(N[C@@H](Cc1ccccc1)C(=O)N1CC(O)C1)c1cc2cc(Cl)ccc2[nH]1 [Control 5] | AUC ([2]; time 0 min): 0 µg·min/mL; Drug Concentration ([2]; time 0 min): 0 µg/mL; AUC ([2]; time 4 min): 302 µg·min/mL; Drug Concentration ([2]; time 4 min): 151 µg/mL; AUC ([2]; time 10 min): 1,400 min* μg/mL; Drug Concentration ([2]; time 10 min): 203 µg/mL; AUC ([2]; time 20 min): 3,500 min* μg/mL; Drug Concentration ([2]; time 20 min): 225 µg/mL; AUC ([2]; time 40 min): 8,100 min* μg/mL; Drug Concentration ([2]; time 40 min): 238 µg/mL; AUC ([2]; time 90 min): 20,800 min* μg/mL; Drug Concentration ([2]; time 90 min): 268 µg/mL; AUC ([2]; time 1200 min): 374,900 min* μg/mL; Drug Concentration ([2]; time 1200 min): 370 µg/mL
